Legend:
Type in all cases: functional
M14 [1] = assay: Growth inhibition of human M14 cells assessed as cell growth at 10 uM by sulforhodamine B assay; settings: read-out: Activity
A498 [2] = assay: Growth inhibition of human A498 cells assessed as growth inhibition at 10 uM by sulforhodamine B assay; settings: read-out: GI
SN12C = assay: Growth inhibition of human SN12C cells assessed as cell growth at 10 uM by sulforhodamine B assay; settings: read-out: Activity
OVCAR-5 = assay: Growth inhibition of human OVCAR5 cells assessed as growth inhibition at 10 uM by sulforhodamine B assay; settings: read-out: GI
CAKI-1 = assay: Growth inhibition of human CAKI-1 cells assessed as growth inhibition at 10 uM by sulforhodamine B assay; settings: read-out: GI
HT-29 = assay: Growth inhibition of human HT-29 cells assessed as cell growth at 10 uM by sulforhodamine B assay; settings: read-out: Activity
U-251 = assay: Growth inhibition of human U251 cells assessed as cell growth at 10 uM by sulforhodamine B assay; settings: read-out: Activity
MOLT-4 [3] = assay: Growth inhibition of human MOLT4 cells assessed as growth inhibition at 10 uM by sulforhodamine B assay; settings: read-out: GI
SK-MEL-5 = assay: Growth inhibition of human SK-MEL-5 cells assessed as cell growth at 10 uM by sulforhodamine B assay; settings: read-out: Activity
MOLT-4 [4] = assay: Growth inhibition of human MOLT4 cells assessed as cell growth at 10 uM by sulforhodamine B assay; settings: read-out: Activity
A498 [5] = assay: Growth inhibition of human A498 cells assessed as cell growth at 10 uM by sulforhodamine B assay; settings: read-out: Activity
OVCAR-3 = assay: Growth inhibition of human OVCAR3 cells assessed as cell growth at 10 uM by sulforhodamine B assay; settings: read-out: Activity
ACHN [6] = assay: Growth inhibition of human ACHN cells assessed as growth inhibition at 10 uM by sulforhodamine B assay; settings: read-out: GI
SK-MEL-28 = assay: Growth inhibition of human SK-MEL-28 cells assessed as cell growth at 10 uM by sulforhodamine B assay; settings: read-out: Activity
CCRF-CEM = assay: Growth inhibition of human CCRF-CEM cells assessed as growth inhibition at 10 uM by sulforhodamine B assay; settings: read-out: GI
BT-549 = assay: Growth inhibition of human BT549 cells assessed as growth inhibition at 10 uM by sulforhodamine B assay; settings: read-out: GI
COLO 205 [7] = assay: Growth inhibition of human COLO205 cells assessed as growth inhibition at 10 uM by sulforhodamine B assay; settings: read-out: GI
HOP-62 [8] = assay: Growth inhibition of human HOP62 cells assessed as growth inhibition at 10 uM by sulforhodamine B assay; settings: read-out: GI
HOP-92 = assay: Growth inhibition of human HOP92 cells assessed as cell growth at 10 uM by sulforhodamine B assay; settings: read-out: Activity
786-0 = assay: Growth inhibition of human 786-0 cells assessed as growth inhibition at 10 uM by sulforhodamine B assay; settings: read-out: GI
HOP-62 [9] = assay: Growth inhibition of human HOP62 cells assessed as cell growth at 10 uM by sulforhodamine B assay; settings: read-out: Activity
UO-31 = assay: Growth inhibition of human UO31 cells assessed as cell growth at 10 uM by sulforhodamine B assay; settings: read-out: Activity
LOX IMVI = assay: Growth inhibition of human LOXIMVI cells assessed as growth inhibition at 10 uM by sulforhodamine B assay; settings: read-out: GI
NCI-H23 = assay: Growth inhibition of human NCI-H23 cells assessed as cell growth at 10 uM by sulforhodamine B assay; settings: read-out: Activity
MDA-MB-468 = assay: Growth inhibition of human MDA-MB-468 cells assessed as cell growth at 10 uM by sulforhodamine B assay; settings: read-out: Activity
SF-295 = assay: Growth inhibition of human SF295 cells assessed as growth inhibition at 10 uM by sulforhodamine B assay; settings: read-out: GI
[10] = Growth inhibition of human NCI-ADR-RES cells assessed as growth inhibition at 10 uM by sulforhodamine B assay; settings: read-out: GI
OVCAR-8 = assay: Growth inhibition of human OVCAR8 cells assessed as growth inhibition at 10 uM by sulforhodamine B assay; settings: read-out: GI
SR = assay: Growth inhibition of human SR cells assessed as growth inhibition at 10 uM by sulforhodamine B assay; settings: read-out: GI
COLO 205 [11] = assay: Growth inhibition of human COLO205 cells assessed as cell growth at 10 uM by sulforhodamine B assay; settings: read-out: Activity
HCT-15 = assay: Growth inhibition of human HCT15 cells assessed as growth inhibition at 10 uM by sulforhodamine B assay; settings: read-out: GI
IGROV-1 [12] = assay: Growth inhibition of human IGROV1 cells assessed as growth inhibition at 10 uM by sulforhodamine B assay; settings: read-out: GI
NCI-H226 = assay: Growth inhibition of human NCI-H226 cells assessed as cell growth at 10 uM by sulforhodamine B assay; settings: read-out: Activity
NCI-H460 = assay: Growth inhibition of human NCI-H460 cells assessed as cell growth at 10 uM by sulforhodamine B assay; settings: read-out: Activity
Malme-3M = assay: Growth inhibition of human MALME-3M cells assessed as cell growth at 10 uM by sulforhodamine B assay; settings: read-out: Activity
ACHN [13] = assay: Growth inhibition of human ACHN cells assessed as cell growth at 10 uM by sulforhodamine B assay; settings: read-out: Activity
IGROV-1 [14] = assay: Growth inhibition of human IGROV1 cells assessed as cell growth at 10 uM by sulforhodamine B assay; settings: read-out: Activity
MDA-MB-231 [15] = assay: Growth inhibition of human MDA-MB-231 cells assessed as cell growth at 10 uM by sulforhodamine B assay; settings: read-out: Activity
MCF7 [16] = assay: Growth inhibition of human MCF7 cells assessed as growth inhibition at 10 uM by sulforhodamine B assay; settings: read-out: GI
MDA-MB-231 [17] = assay: Growth inhibition of human MDA-MB-231 cells assessed as growth inhibition at 10 uM by sulforhodamine B assay; settings: read-out: GI
SNB-19 = assay: Growth inhibition of human SNB19 cells assessed as cell growth at 10 uM by sulforhodamine B assay; settings: read-out: Activity
SK-MEL-2 = assay: Growth inhibition of human SK-MEL-2 cells assessed as cell growth at 10 uM by sulforhodamine B assay; settings: read-out: Activity
M14 [18] = assay: Growth inhibition of human M14 cells assessed as growth inhibition at 10 uM by sulforhodamine B assay; settings: read-out: GI
NCI-H322M = assay: Growth inhibition of human NCI-H322M cells assessed as growth inhibition at 10 uM by sulforhodamine B assay; settings: read-out: GI
MCF7 [19] = assay: Growth inhibition of human MCF7 cells assessed as cell growth at 10 uM by sulforhodamine B assay; settings: read-out: Activity
RPMI-8226 = assay: Growth inhibition of human RPMI8226 cells assessed as growth inhibition at 10 uM by sulforhodamine B assay; settings: read-out: GI
K562 = assay: Growth inhibition of human K562 cells assessed as cell growth at 10 uM by sulforhodamine B assay; settings: read-out: Activity
NCI-H522 = assay: Growth inhibition of human NCI-H522 cells assessed as cell growth at 10 uM by sulforhodamine B assay; settings: read-out: Activity
SK-OV-3 = assay: Growth inhibition of human SKOV3 cells assessed as cell growth at 10 uM by sulforhodamine B assay; settings: read-out: Activity

## COc1cc(/C=C2\C[C@]3(C)[C@H]4CC=C5[C@@H]6CC(C)(C)C[C@@H](O)[C@]6(C(=O)O)CC[C@@]5(C)[C@]4(C)CC[C@H]3C(C)(C)C2=O)ccc1O
M14 [1]
  growth at 10 µM: 103%
A498 [2]
  inhibition of growth at 10 µM: < 10%
SN12C
  growth at 10 µM: 87.5%
OVCAR-5
  inhibition of growth at 10 µM: < 10%
CAKI-1
  inhibition of growth at 10 µM: 21.2%
HT-29
  growth at 10 µM: 85.5%
U-251
  growth at 10 µM: 84.7%
MOLT-4 [3]
  inhibition of growth at 10 µM: 36.7%
SK-MEL-5
  growth at 10 µM: 88.1%
MOLT-4 [4]
  growth at 10 µM: 63.3%
A498 [5]
  growth at 10 µM: 115%
OVCAR-3
  growth at 10 µM: 106%
ACHN [6]
  inhibition of growth at 10 µM: 14.4%
SK-MEL-28
  growth at 10 µM: 90.6%
CCRF-CEM
  inhibition of growth at 10 µM: 18%
BT-549
  inhibition of growth at 10 µM: < 10%
COLO 205 [7]
  inhibition of growth at 10 µM: < 10%
HOP-62 [8]
  inhibition of growth at 10 µM: < 10%
HOP-92
  growth at 10 µM: 70.9%
786-0
  inhibition of growth at 10 µM: < 10%
HOP-62 [9]
  growth at 10 µM: 96.9%
UO-31
  growth at 10 µM: 75.5%
LOX IMVI
  inhibition of growth at 10 µM: 11.6%
NCI-H23
  growth at 10 µM: 85%
MDA-MB-468
  growth at 10 µM: 103%
SF-295
  inhibition of growth at 10 µM: 23.5%
[10]
  inhibition of growth at 10 µM: < 10%
OVCAR-8
  inhibition of growth at 10 µM: 20.2%
SR
  inhibition of growth at 10 µM: 12.9%
COLO 205 [11]
  growth at 10 µM: 94.8%
HCT-15
  inhibition of growth at 10 µM: 23.5%
IGROV-1 [12]
  inhibition of growth at 10 µM: < 10%
NCI-H226
  growth at 10 µM: 100%
NCI-H460
  growth at 10 µM: 102%
Malme-3M
  growth at 10 µM: 81.1%
ACHN [13]
  growth at 10 µM: 85.6%
IGROV-1 [14]
  growth at 10 µM: 97.8%
MDA-MB-231 [15]
  growth at 10 µM: 97.9%
MCF7 [16]
  inhibition of growth at 10 µM: 22.5%
MDA-MB-231 [17]
  inhibition of growth at 10 µM: < 10%
SNB-19
  growth at 10 µM: 97%
SK-MEL-2
  growth at 10 µM: 100%
M14 [18]
  inhibition of growth at 10 µM: < 10%
NCI-H322M
  inhibition of growth at 10 µM: < 10%
MCF7 [19]
  growth at 10 µM: 77.5%
RPMI-8226
  inhibition of growth at 10 µM: 40.5%
K562
  growth at 10 µM: 71.2%
NCI-H522
  growth at 10 µM: 80.8%
SK-OV-3
  growth at 10 µM: 99.2%

## CC1(C)C[C@@H](O)[C@]2(C(=O)O)CC[C@]3(C)C(=CC[C@@H]4[C@@]5(C)CC[C@H](O)C(C)(C)[C@@H]5CC[C@]43C)[C@@H]2C1
M14 [1]
  growth at 10 µM: 93.6%
A498 [2]
  inhibition of growth at 10 µM: < 10%
SN12C
  growth at 10 µM: 89.5%
OVCAR-5
  inhibition of growth at 10 µM: < 10%
CAKI-1
  inhibition of growth at 10 µM: 15.2%
HT-29
  growth at 10 µM: 109%
U-251
  growth at 10 µM: 91.8%
MOLT-4 [3]
  inhibition of growth at 10 µM: 21.7%
SK-MEL-5
  growth at 10 µM: 98.7%
MOLT-4 [4]
  growth at 10 µM: 78.3%
A498 [5]
  growth at 10 µM: 102%
OVCAR-3
  growth at 10 µM: 101%
ACHN [6]
  inhibition of growth at 10 µM: < 10%
SK-MEL-28
  growth at 10 µM: 95.6%
CCRF-CEM
  inhibition of growth at 10 µM: 11.6%
BT-549
  inhibition of growth at 10 µM: < 10%
COLO 205 [7]
  inhibition of growth at 10 µM: < 10%
HOP-62 [8]
  inhibition of growth at 10 µM: < 10%
HOP-92
  growth at 10 µM: 103%
786-0
  inhibition of growth at 10 µM: 13.8%
HOP-62 [9]
  growth at 10 µM: 98.9%
UO-31
  growth at 10 µM: 85.5%
LOX IMVI
  inhibition of growth at 10 µM: 11.1%
NCI-H23
  growth at 10 µM: 102%
MDA-MB-468
  growth at 10 µM: 111%
SF-295
  inhibition of growth at 10 µM: < 10%
[10]
  inhibition of growth at 10 µM: < 10%
OVCAR-8
  inhibition of growth at 10 µM: < 10%
SR
  inhibition of growth at 10 µM: 22%
COLO 205 [11]
  growth at 10 µM: 109%
HCT-15
  inhibition of growth at 10 µM: < 10%
IGROV-1 [12]
  inhibition of growth at 10 µM: < 10%
NCI-H226
  growth at 10 µM: 107%
NCI-H460
  growth at 10 µM: 101%
Malme-3M
  growth at 10 µM: 102%
ACHN [13]
  growth at 10 µM: 102%
IGROV-1 [14]
  growth at 10 µM: 97.6%
MDA-MB-231 [15]
  growth at 10 µM: 98.6%
MCF7 [16]
  inhibition of growth at 10 µM: < 10%
MDA-MB-231 [17]
  inhibition of growth at 10 µM: < 10%
SNB-19
  growth at 10 µM: 98.2%
SK-MEL-2
  growth at 10 µM: 97.9%
M14 [18]
  inhibition of growth at 10 µM: < 10%
NCI-H322M
  inhibition of growth at 10 µM: < 10%
MCF7 [19]
  growth at 10 µM: 96.4%
RPMI-8226
  inhibition of growth at 10 µM: 10.7%
K562
  growth at 10 µM: 94%
NCI-H522
  growth at 10 µM: 95.3%
SK-OV-3
  growth at 10 µM: 101%
